In ChEMBL document CHEMBL3507680, “University of Dundee, Gates Library screen for HepG2 cell viability”:

Experiment: Human HepG2 cell viability assay in 384 well format
Format: toxicity, cell-based
Set-up: dose 125 nL, time 70.5 hour; cytotoxicity at 70.5 h: concentration not given beside the values
Conditions: HepG2 cells, read-out: Inhibition

Row | SMILES | cytotoxicity at 70.5 h [%]
1 | O=c1cc(Cn2cncn2)nc2n1CCCN(Cc1ccsc1)C2 | -11.7
2 | CCN(CC1CCCO1)C(=O)Nc1cc(OC)c(OC)cc1C (centres undefined) | -14.3
3 | CCN(C)S(=O)(=O)N1CCC(C(O)c2ccc(Cl)cc2)CC1 (centres undefined) | -8.06
4 | O=C(CCc1nnc(-c2ccccc2)o1)N1CCN(CC2CC2)CC1 | 1.86
5 | CC(C)c1cc(NC(=O)CN2CCCC2Cn2cccn2)on1 (centres undefined) | -1.57
6 | CN1CCCC(c2nccnc2-c2cccc(C(F)(F)F)c2)C1 (centres undefined) | -0.583
7 | CC(C)(C)CCCC(=O)NS(=O)(=O)CC1CC1 | -0.428
8 | O=S(=O)(Cc1cccc2cccnc12)NC(CO)c1ccco1 (centres undefined) | -9.35
9 | CN1CCC(Oc2ccc(NC(=O)c3cccc(Cl)c3)cc2)CC1 | -3.56
10 | COCCN(C)C[C@@H]1CCC[C@@H]2CN(c3ncccn3)C[C@@H]21 | -0.79
11 | Cc1ncn(-c2cc(N3CCN(S(C)(=O)=O)CC3)ncn2)c1C | -4.92
12 | Cc1ccc(C(C)(O)CNC(=O)c2sccc2Br)o1 (centres undefined) | 4.05
13 | c1cc(CN2C[C@@H]3OCCN(CC4CCCO4)[C@@H]3C2)co1 (some centres undefined) | -10.8
14 | O=C(COCc1nc(-c2ccncc2)no1)N1CCCC1 | -4.88
15 | Cn1cc(C(=O)N2CCCC(n3cccn3)C2)c2ccccc21 (centres undefined) | 0.858
16 | O=C(Cn1cccn1)N1CCC(Oc2ccc(C(F)(F)F)cn2)CC1 | -0.904
17 | CC(C)(C)c1cnc(CN2CCC(c3ccnn3CCO)CC2)o1 | -11.1
18 | COCC(=O)N1CCC2(COCc3cnc(N4CCOCC4)nc32)C1 (centres undefined) | 6.48
19 | CC(C)c1noc(C2CCN(S(=O)(=O)c3cccs3)CC2)n1 | -0.463
20 | COc1ccc(CCNC(=O)C2CC2)c(Cl)c1 | -1.42
21 | CN(C)CCOCC1CN(Cc2ccncc2)Cc2nnn(C)c21 (centres undefined) | 1.9
22 | Cc1ccc(CNc2cc(N3CCCC3CO)ncn2)s1 (centres undefined) | -0.592
23 | CC(C)c1nc2c(n1C)CCN(Cc1cccc(C(N)=O)c1)C2 | -13.9

Row | SMILES | cytotoxicity at 70.5 h [%]
24 | CN(CCc1noc(C2CC2)n1)C(=O)C1(N2CCCC2)CCCC1 | -3.64
25 | CC(=O)N1CCC2(CCCN2Cc2cnn(C)c2)CC1 | -10
26 | Cc1cc(=O)[nH]c(-n2nc(C)c(CCC(=O)Nc3nc(C)cs3)c2C)n1 | -3.34
27 | COCC1CN(C(=O)[C@H]2CCCO2)Cc2nnn(CC3CC3)c21 (some centres undefined) | -5.8
28 | CN(C)CCN1C[C@@H]2CN(c3ccccc3)C[C@@H]2C1=O | 23.6
29 | O=C(CN1C=Nc2ccccc2S1(=O)=O)NCCc1cccs1 | 1.55
30 | Cc1nn(-c2ccccc2)c(C)c1CNC(=O)NC1CC(=O)N(C)C1 (centres undefined) | -1.18
31 | CNC(=O)c1ccc(C(=O)N2CCCC2c2cnn(C)c2)cn1 (centres undefined) | 1.99
32 | O=C(N1CCOCC1)N1CCc2ncnc(NC3CCC3)c2CC1 | -14.5
33 | O=C(c1cnc(-c2cnccn2)s1)N1CCCC(n2cccn2)C1 (centres undefined) | -6.04
34 | CCCn1nnc2c(sc3nc(N4CCOCC4)c4c(c32)CCC4)c1=O | -21.7
35 | O=C(Cc1ccc(F)cc1)NCCNCc1cccc(O)c1 | 0.177
36 | Cn1ccnc1COc1ccc(CO)cc1 | -6.37
37 | Cn1ccc(NC(=O)CN2CCN(C3CCCC3)C(=O)C2)n1 | -4.86
38 | CSCCCn1ccnc1-c1cccc(C#N)c1 | 8.22
39 | Cc1c(C(=O)N(C)CC(F)(F)F)nnn1-c1ccc(F)cc1 | 0.0353
40 | CN1CCC(c2n[nH]c(=O)n2CC2CCCCC2)CC1 | -8.59
41 | COc1cccc(C(CO)NC(=O)NC(C)C)c1 (centres undefined) | 11.8
42 | NC(=O)C1CCN(C(=O)NCc2ccccc2-n2cccn2)C1 (centres undefined) | -4.02
43 | CC(C)CCN1CCN(CC(=O)Nc2ccc3nsnc3c2)CC1 | -11.4
44 | Cc1cc(C)c(CCNC(=O)NCCCC(N)=O)c(C)c1 | -1.98
45 | COCc1cc(NCc2ccccc2OC)ncn1 | -7.89
46 | Cn1cccc1C(=O)N[C@H]1CN(Cc2ccoc2)[C@@H]2CCCO[C@H]12 | 17.5

Row | SMILES | cytotoxicity at 70.5 h [%]
47 | O=C(c1ccncc1)N1CCCC(c2ncncc2-c2ccncc2)C1 (centres undefined) | -4.43
48 | CNC(=O)[C@H]1C[C@H]2OCC[C@H]2N(Cc2ccc(F)cc2)C1 | -4.52
49 | Cc1ccccc1-n1ccc2nc(N3CCCC3)ncc2c1=O | -13.6
50 | COc1c(C2CCCN2Cc2c(C)noc2C)c(C)nn1C (centres undefined) | -5.56
51 | CN(C)S(=O)(=O)N1CCC(Cn2cccn2)CC1 | -7.21
52 | CN(CC(=O)NCCC#N)C(c1ccccc1)c1ccc(F)cc1 (centres undefined) | -15.7
53 | CC(C)N1C(=O)CC(N2CCN(c3ccc(F)cc3)CC2)C1=O (centres undefined) | 6.65
54 | COCCC(Cc1cccc(Br)c1)C(=O)O (centres undefined) | -5.16
55 | O=C(CC1CC1)NCc1cn2c(n1)CN(Cc1cccc(F)c1)CC2 | -3.4
56 | O=C(NCCN1CCCCCC1)c1cccc(Cl)c1Cl | 1.51
57 | CN1CCOCC2(CCCN(C(=O)c3ccccc3F)C2)C1 (centres undefined) | 13.4
58 | CCN(Cc1ccc(Cl)s1)S(=O)(=O)CC | 0.4
59 | COCc1cccc(C(=O)N2CCCCC2c2nccs2)c1 (centres undefined) | -8.81
60 | Cc1cc(NCCSc2nccn2C)n2ncnc2n1 | 17.1
61 | Cc1ccc(C)c(S(=O)(=O)N2CCN(C)C3(CCC(=O)N(C)CC3)C2)c1 (centres undefined) | -13.3
62 | CS(=O)(=O)c1ccccc1C(=O)NCCCN1CCc2ccccc2C1 | 18.5
63 | O=C(O)c1ccnc(SCC(=O)c2ccccc2)c1 | 14.5
64 | Cc1cn(CC(=O)NC2CCN(C(=O)C3CC3)CC2)c2ccccc12 | -9.4
65 | O=S(=O)(c1ccccc1Cl)N1CCc2nc(C3CCNCC3)ncc2C1 | -3.67
66 | CNC(=O)[C@@H](c1ccccc1OC)N1CCC[C@H]1C(=O)NCCN(C)C | -5.36
67 | Cc1c(C(=O)N2CC(Cc3nccc4ccn(C)c34)C2)cnn1C | -6.29
68 | Cc1ccc2nc(NCCCN3CCCCCC3=O)n(C)c(=O)c2c1 | -20
69 | COc1cccc(OC)c1CN1CCC2(CC(Nc3ccncn3)C2)C1 (centres undefined) | -9.12

Row | SMILES | cytotoxicity at 70.5 h [%]
70 | Cc1cc(C)n(CC2CN(CCOc3ccccc3C#N)CCO2)n1 (centres undefined) | -5.02
71 | Cc1nonc1NC(=O)C1SCCc2ccccc21 (centres undefined) | 2.97
72 | Cc1nn(CC(=O)N2CCN(c3ccncc3)CC2)c(C)c1Cl | 1.17
73 | CS(=O)(=O)NC1CCN(Cc2coc(-c3ccc(Cl)cc3)n2)CC1 | 7.7
74 | C[C@@H]1CN(CC(C)(C)N2CCOCC2)C[C@@]1(O)C1CC1 | -6.35
75 | Cc1csc(N2CCCN(C(=O)CCN3CCCC3=O)CC2)n1 | -8.02
76 | Cc1ncccc1NC(=O)[C@@H]1C[C@@H]2CCN(Cc3cccs3)C[C@H]2O1 | -12.3
77 | Cc1ccc(F)cc1S(=O)(=O)N1C[C@@H](C)[C@@](C)(O)C1 | 14.7
78 | Cn1cc2ncn([C@H]3CCN(Cc4ccccc4)C3)c(=O)c2n1 | -6.58
79 | CCOC[C@@]12CCC[C@@H]1CN(C(=O)c1ccc(OC)cc1)C2 | 4.26
80 | COc1cc(C(=O)NC(CC(=O)O)c2cccs2)cc(Cl)c1OC (centres undefined) | -8.1
81 | Cc1noc2nc(C3CCN(Cc4ccncc4)CC3)cc(C(F)F)c12 | 31.7
82 | CCCN1CCCN(C(=O)c2oc(C)nc2C)CC1 | 30.9
83 | CC(C)c1nc(CN2CCC(c3ccnn3CCO)CC2)no1 | 19.5
84 | NC(=O)C1CCN(C(=O)CCSCc2ccc(Cl)c(Cl)c2)CC1 | -7.23
85 | CNC(=O)NC(C)c1c(F)cccc1Cl (centres undefined) | -107
86 | CC(=O)N1CCN(C(=O)c2ccc(Sc3ccccn3)cc2)CC1 | -14
87 | Cc1cc(C2CCCN2Cc2ccc(S(=O)(=O)N3CCCC3)o2)on1 (centres undefined) | -102
88 | O=C(c1ccsc1)N1CCC2(CCN2Cc2ccc(F)cc2)C1 (centres undefined) | -8.12
89 | COc1ccc(CN2CCCn3cnc(COCC4CC4)c3C2)cc1 | 1.46
90 | O=S(=O)(c1cn[nH]c1)N1CCCC1c1cc[nH]n1 (centres undefined) | -7.61
91 | CCCOC1CCCN(c2ccnc(C(=O)NCc3ccco3)c2)C1 (centres undefined) | -8.53
92 | CCOc1cccc(CNc2cccc(C(=O)OC)c2)c1O | -19.3

Row | SMILES | cytotoxicity at 70.5 h [%]
93 | COc1nc2ccn(CCNc3cc(C)ccn3)c(=O)c2cc1C#N | -3.78
94 | O=C(c1ccncc1F)N1CCN(CC2CC2)c2ncccc2C1 | 24.5
95 | CC(C)CNC(=O)c1ccc(NC(=O)NC2CC2)cc1Cl | -12.8
96 | COCCN1CCCC(Cc2cnc(-c3c(C)nn(C)c3C)cn2)C1 (centres undefined) | -5.51
97 | CCOC(=O)NCCC(=O)NCc1ccc(Oc2cccc(F)c2)nc1 | -3.11
98 | CCc1nccn1C1CCCN(C(=O)c2ccc(OC)c(OC)c2)C1 (centres undefined) | 9.92
99 | CCN1CCN(c2ccc(C(=O)NC(C)C(=O)N(C)C)cc2)CC1 (centres undefined) | -4.6
100 | O=C(COC[C@@]12CCC[C@@H]1CN(C1CCC1)C2)N1CCCC1 | -9.27
101 | O=C1CC(N(C(=O)c2ccc3[nH]c4c(c3c2)CCCC4)C2CC2)C(=O)N1 (centres undefined) | 39.1
102 | CCC(NC(=O)C1CCN(S(C)(=O)=O)CC1)c1ccc(C)cc1 (centres undefined) | -3.68
103 | NC(=O)c1nc(CC(=O)Nc2cccc(C(F)(F)F)c2)no1 | 0.00692
104 | Cc1ccsc1C(=O)N1CC(C(=O)N2CCOCC2)C2(CCOCC2)C1 (centres undefined) | 24.8
105 | CNC(=O)NC(=O)CSc1ccc2c(c1)CCC2 | -5.43
106 | O=C(NCc1ccco1)[C@@H]1COC[C@H]2CN(c3ncc(F)cn3)C[C@H]21 | -7.6
107 | COCC1c2c(cnn2CC2CC2)CCN1Cc1ccc(OC)cc1 (centres undefined) | 49.3
108 | Cc1nn(-c2ccccc2)cc1C(=O)N1CCCN2CCCC2C1 (centres undefined) | 3.01
109 | COCCN(Cc1ccoc1)C(=O)CSc1ccc(F)cc1 | -5.61
110 | CN1CCCN(C(C(=O)O)c2ccc3c(c2)OCO3)CC1 (centres undefined) | 0.827
111 | Cc1ccc(NC(=O)N2CCOC(C)C2)cc1Cl (centres undefined) | -7.15
112 | Cc1cc(C)c(CNC(=O)N2CCC(N3CCNC3=O)CC2)c(=O)[nH]1 | -10.5
113 | Cc1cc(C)c(CNC(=O)N2CCN(c3ccccn3)CC2)c(=O)[nH]1 | 0.786
114 | Cc1cccc(CN2CCc3onc(Cn4cccc4)c3C2)n1 | -2.56
